Tests used:
Human Calpain 1/NS1 = molecular target: T1, Human Calpain 1/NS1 (Homo sapiens, UniProt P07384); test: Calpain inhibition, continuous fluorescence (FRET substrate) assay, calpain 1; assay type: biochemical; conditions: SensoLyte 520 FRET substrate, 25C
T1 sequence (P07384 1-714): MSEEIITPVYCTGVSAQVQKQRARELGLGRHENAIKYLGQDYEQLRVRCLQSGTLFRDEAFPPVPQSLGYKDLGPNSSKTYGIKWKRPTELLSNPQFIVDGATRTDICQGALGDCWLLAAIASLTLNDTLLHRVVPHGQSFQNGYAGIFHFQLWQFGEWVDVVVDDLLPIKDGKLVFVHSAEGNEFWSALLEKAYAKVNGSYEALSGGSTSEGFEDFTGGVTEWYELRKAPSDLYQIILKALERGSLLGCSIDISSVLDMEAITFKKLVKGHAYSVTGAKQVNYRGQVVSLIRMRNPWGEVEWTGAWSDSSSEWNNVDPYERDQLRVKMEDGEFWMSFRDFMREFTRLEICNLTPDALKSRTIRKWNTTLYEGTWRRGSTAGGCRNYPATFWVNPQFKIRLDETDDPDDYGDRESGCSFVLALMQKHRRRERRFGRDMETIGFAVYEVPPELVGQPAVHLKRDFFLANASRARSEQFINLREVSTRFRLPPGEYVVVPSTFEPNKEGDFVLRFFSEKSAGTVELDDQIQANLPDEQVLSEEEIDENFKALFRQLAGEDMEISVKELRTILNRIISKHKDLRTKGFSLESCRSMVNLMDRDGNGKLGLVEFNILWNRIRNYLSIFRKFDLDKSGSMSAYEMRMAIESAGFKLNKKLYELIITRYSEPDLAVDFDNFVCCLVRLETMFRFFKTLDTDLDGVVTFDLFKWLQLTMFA
T1 sequence (P04632 1-268 partner): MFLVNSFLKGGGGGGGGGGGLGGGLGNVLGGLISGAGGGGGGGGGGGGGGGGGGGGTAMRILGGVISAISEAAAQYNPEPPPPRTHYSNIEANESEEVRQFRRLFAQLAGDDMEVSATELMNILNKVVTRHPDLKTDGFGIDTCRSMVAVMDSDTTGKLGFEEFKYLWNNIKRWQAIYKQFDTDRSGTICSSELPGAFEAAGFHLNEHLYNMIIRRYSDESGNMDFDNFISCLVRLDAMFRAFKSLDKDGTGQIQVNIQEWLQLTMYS
Summary of the method: (§1)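 Continuous FRET read-out (ex 490/em 520 nm) of 5-FAM/QXL 520 substrate cleavage, started by adding substrate with CaCl2 for in-situ activation after enzyme–inhibitor preincubation at 25 °C. Buffer was Tris 50 mM pH 7.5, NaCl 100 mM, DTT 1 mM. IC50 fitted (4-parameter) from rates over 1-5 min.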

Human Calpain 2/NS1 = molecular target: T2, Human Calpain 2/NS1 (Homo sapiens, UniProt P17655); test: Calpain inhibition, continuous fluorescence (FRET substrate) assay, calpain 2; assay type: biochemical; conditions: SensoLyte 520 FRET substrate, 25C
T2 sequence (P17655 1-700): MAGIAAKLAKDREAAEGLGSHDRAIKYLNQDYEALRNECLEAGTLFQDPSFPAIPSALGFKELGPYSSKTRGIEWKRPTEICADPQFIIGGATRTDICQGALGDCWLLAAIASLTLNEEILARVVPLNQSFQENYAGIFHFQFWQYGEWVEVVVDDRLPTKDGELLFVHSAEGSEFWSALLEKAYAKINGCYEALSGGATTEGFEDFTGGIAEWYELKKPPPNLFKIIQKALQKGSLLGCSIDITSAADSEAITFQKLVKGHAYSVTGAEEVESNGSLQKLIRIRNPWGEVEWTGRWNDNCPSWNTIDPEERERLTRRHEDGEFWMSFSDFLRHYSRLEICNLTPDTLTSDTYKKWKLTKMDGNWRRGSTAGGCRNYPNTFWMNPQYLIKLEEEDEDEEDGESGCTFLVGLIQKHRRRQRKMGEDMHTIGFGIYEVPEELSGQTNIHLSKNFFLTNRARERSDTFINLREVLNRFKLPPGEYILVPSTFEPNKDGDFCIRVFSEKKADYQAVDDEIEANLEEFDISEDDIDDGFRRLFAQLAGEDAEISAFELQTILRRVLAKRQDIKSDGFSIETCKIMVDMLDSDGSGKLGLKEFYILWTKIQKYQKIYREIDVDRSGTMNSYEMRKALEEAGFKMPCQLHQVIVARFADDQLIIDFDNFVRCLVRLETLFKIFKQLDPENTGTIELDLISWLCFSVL
T2 sequence (P04632 1-268 partner): T1 sequence (P04632 1-268 partner)
Summary of the method: as §1

Human Calpain 9/NS1 = molecular target: T3, Human Calpain 9/NS1 (Homo sapiens, UniProt O14815); test: Calpain inhibition, continuous fluorescence (FRET substrate) assay, calpain 9; assay type: biochemical; conditions: SensoLyte 520 FRET substrate, 25C
T3 sequence (O14815 1-690): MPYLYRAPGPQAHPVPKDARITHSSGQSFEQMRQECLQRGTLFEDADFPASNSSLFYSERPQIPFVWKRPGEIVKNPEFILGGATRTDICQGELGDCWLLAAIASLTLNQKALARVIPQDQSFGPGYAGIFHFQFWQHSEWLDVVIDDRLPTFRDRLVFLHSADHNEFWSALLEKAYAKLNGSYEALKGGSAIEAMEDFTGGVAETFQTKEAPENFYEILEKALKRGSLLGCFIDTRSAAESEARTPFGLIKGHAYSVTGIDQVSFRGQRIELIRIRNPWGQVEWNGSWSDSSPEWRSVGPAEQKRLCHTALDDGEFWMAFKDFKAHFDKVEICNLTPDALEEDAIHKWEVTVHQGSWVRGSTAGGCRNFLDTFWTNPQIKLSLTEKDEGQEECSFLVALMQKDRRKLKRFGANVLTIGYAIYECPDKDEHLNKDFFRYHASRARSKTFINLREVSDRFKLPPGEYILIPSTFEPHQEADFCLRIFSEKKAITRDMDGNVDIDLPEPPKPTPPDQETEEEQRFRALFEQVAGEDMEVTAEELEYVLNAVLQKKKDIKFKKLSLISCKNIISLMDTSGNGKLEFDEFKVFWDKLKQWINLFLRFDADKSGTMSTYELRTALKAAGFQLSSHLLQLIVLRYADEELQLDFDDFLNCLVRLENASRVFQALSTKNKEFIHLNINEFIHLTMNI
T3 sequence (P04632 1-268 partner): T1 sequence (P04632 1-268 partner)
Summary of the method: as §1

[1] = tested on: Calpain activity in SH-SY5Y cells; test: SH-SY5Y spectrin breakdown product (SBDP-150) western blot assay; assay type: cell-based; conditions: SH-SY5Y cells, 25 uM A23187, SBDP-150 western blot, read-out: SH-SY5Y Spectrin IC50
[2] = tested on: Calpain activity in SH-SY5Y cells; test: SH-SY5Y Suc-LLVY-AMC fluorescence assay; assay type: cell-based; conditions: SH-SY5Y cells, 100 uM Suc-LLVY-AMC, read-out: SH-SY5Y + AMC IC50

SMILES | IC50 (Human Calpain 1/NS1) [µM] | IC50 (Human Calpain 2/NS1) [µM] | IC50 (Human Calpain 9/NS1) [µM] | IC50 ([1]; Homo sapiens) [µM] | IC50 ([2]; Homo sapiens) [µM] | IC50 [1] [µM] | IC50 [2] [µM]
O=C(NC(Cc1ccccc1)C(=O)c1nnn[nH]1)c1nsnc1-c1ccccc1 (stereo not drawn) [Compound 93, N-(1-OXO-3-PHENYL-1-(1H-TETRAZOL-5-YL)PROPAN-2-YL)-4-PHENYL-1,2,5-THIADIAZOLE-3-CARBOXAMIDE] | > 10 | > 10 | > 10 | > 25 | > 25 | – | –
NC(=O)C(=O)C(Cc1ccccc1)NC(=O)c1oc(C(F)F)nc1-c1cccc2cn[nH]c12 (stereo not drawn) [Compound 94, N-(4-AMINO-3,4-DIOXO-1-PHENYLBUTAN-2-YL)-2-(DIFLUOROMETHYL)-4-(1H-INDAZOL-7-YL)OXAZOLE-5-CARBOXAMIDE] | < 3 | < 3 | < 3 | – | – | < 10 | < 10
Cn1cc(C(=O)NC(Cc2ccc(C(F)(F)F)cc2)C(=O)C(N)=O)c(-c2ccccc2F)n1 (stereo not drawn) [Compound 95, N-(4-AMINO-3,4-DIOXO-1-(4-(TRIFLUOROMETHYL)PHENYL)BUTAN-2-YL)-3-(2-FLUOROPHENYL)-1-METHYL-1H-PYRAZOLE-4-CARBOXAMIDE] | < 3 | < 3 | < 3 | 10 to 25 | > 25 | – | –
Cc1nc(-c2ccccc2F)c(C(=O)NC(Cc2ccc(Cl)cc2)C(=O)C(N)=O)o1 (stereo not drawn) [Compound 96, N-(4-AMINO-1-(4-CHLOROPHENYL)-3,4-DIOXOBUTAN-2-YL)-4-(2-FLUOROPHENYL)-2-METHYLOXAZOLE-5-CARBOXAMIDE] | < 3 | < 3 | < 3 | < 10 | < 10 | – | –
Cn1cc(C(=O)NC(Cc2ccc(Cl)cc2)C(=O)C(N)=O)c(-c2ccccc2F)n1 (stereo not drawn) [Compound 97, N-(4-AMINO-1-(4-CHLOROPHENYL)-3,4-DIOXOBUTAN-2-YL)-3-(2-FLUOROPHENYL)-1-METHYL-1H-PYRAZOLE-4-CARBOXAMIDE] | < 3 | < 3 | < 3 | < 10 | < 10 | – | –
Cc1nc(-c2cc(Cl)oc2C)c(C(=O)NC(Cc2ccccc2)C(=O)C(N)=O)o1 (stereo not drawn) [Compound 98, N-(4-AMINO-3,4-DIOXO-1-PHENYLBUTAN-2-YL)-4-(5-CHLORO-2-METHYLFURAN-3-YL)-2-METHYLOXAZOLE-5-CARBOXAMIDE] | < 3 | < 3 | < 3 | 10 to 25 | < 10 | – | –
Cn1cc(C(=O)NC(Cc2ccccc2)C(=O)C(N)=O)c(-c2cccc3cn(C)nc23)n1 (stereo not drawn) [Compound 99, N-(4-AMINO-3,4-DIOXO-1-PHENYLBUTAN-2-YL)-1-METHYL-3-(2-METHYL-2H-INDAZOL-7-YL)-1H-PYRAZOLE-4-CARBOXAMIDE] | < 3 | < 3 | < 3 | > 25 | > 25 | – | –
CC(C)n1ncc2c(-c3nn(C)cc3C(=O)NC(Cc3ccccc3)C(=O)C(N)=O)cccc21 (stereo not drawn) [Compound 100, N-(4-AMINO-3,4-DIOXO-1-PHENYLBUTAN-2-YL)-3-(1-ISOPROPYL-1H-INDAZOL-4-YL)-1-METHYL-1H-PYRAZOLE-4-CARBOXAMIDE] | < 3 | < 3 | < 3 | 10 to 25 | 10 to 25 | – | –
Cn1cc(C(=O)NC(Cc2ccccc2)C(=O)C(N)=O)c(-c2cccc3ccsc23)n1 (stereo not drawn) [Compound 101, N-(4-AMINO-3,4-DIOXO-1-PHENYLBUTAN-2-YL)-3-(BENZO[b]THIOPHEN-7-YL)-1-METHYL-1H-PYRAZOLE-4-CARBOXAMIDE] | < 3 | < 3 | < 3 | < 10 | 10 to 25 | – | –
Cn1cc(C(=O)NC(Cc2ccccc2)C(=O)C(N)=O)c(-c2cccc3sccc23)n1 (stereo not drawn) [Compound 102, N-(4-AMINO-3,4-DIOXO-1-PHENYLBUTAN-2-YL)-3-(BENZO[b]THIOPHEN-4-YL)-1-METHYL-1H-PYRAZOLE-4-CARBOXAMIDE] | < 3 | < 3 | < 3 | < 10 | > 25 | – | –
CC(C)n1c(=O)[nH]c2c(-c3nn(C)cc3C(=O)NC(Cc3ccccc3)C(=O)C(N)=O)cccc21 (stereo not drawn) [Compound 103, N-(4-AMINO-3,4-DIOXO-1-PHENYLBUTAN-2-YL)-3-(1-ISOPROPYL-2-OXO-2,3-DIHYDRO-1H-BENZO[D]IMIDAZOL-4-YL)-1-METHYL-1H-PYRAZOLE-4-CARBOXAMIDE] | < 3 | < 3 | < 3 | < 10 | 10 to 25 | – | –
O=C(NC(Cc1ccccc1)C(=O)c1nc[nH]n1)c1nsnc1-c1ccccc1 (stereo not drawn) [Compound 104, N-(1-OXO-3-PHENYL-1-(H-1,2,4-TRIAZOL-3-YL)PROPAN-2-YL)-4-PHENYL-1,2,5-THIADIAZOLE-3-CARBOXAMIDE] | > 10 | > 10 | > 10 | > 25 | > 25 | – | –

— patent US20210009564A1, “CALPAIN MODULATORS AND THERAPEUTIC USES THEREOF” (BLADE THERAPERTICS, INC., priority 2018, published 2021)
